# Data reported in patent publication US20150368617A1, “METHOD FOR FORMING ENDOTHELIAL CELLS” (Korea Advanced Institute of Science and Technology (KAIST), priority 2012, published 2015).
# Key:
# Flk1+ MPCs [1] = experiment: Differentiation and expansion of ECs from Flk1+ MPCs in feeder cell-free 2D Matrigel system, FACS of CD31+/CD144+ ECs; format: cell-based, mouse; settings: for EC population: other ROCK inhibitors
# Description: E14tg2a ESC cell line was a generous gift from Dr. Jun K. Yamashita (Kyoto University), and R1 ESC cell line was purchased from American Type Cell Culture. Mouse iPSC derived from FVB strain was a generous gift from Drs. Hyun-Jai Cho and Hyo-Soo Kim (Seoul National University Hospital). To obtain Flk1+ MPCs, ESCs and iPSCs were cultured on 0.1% gelatin-coated plates at a density of 1-2×10^3 cells/cm^2 in differentiation medium [┌−minimal essential medium (Invitrogen) supplemented with 10% fetal bovine serum (FBS)] without leukemia inhibitory factor (LIF). At day 4.5, the Flk1+ MPCs were purified by AutoMACS™Pro Separator (Miltenyi Biotec) with biotin-conjugated anti-mouse Flk1 antibody (clone AVAS12a1, eBioscience) and streptavidin MicroBeads (Miltenyi Biotec). The Flk1+MPCs were then subsequently plated onto Matrigel (BD Biosciences)-coated plates at a density of 1˜2×10^4 cells/cm^2, and were cultured in differentiation medium supplemented with VEGF-A165 (50 ng/ml, Peprotech). To purify the ECs from the differentiating Flk1+ cells, the cells were first dissociated and resuspended in HBSS/2% FBS, and were serially incubated with anti-mouse ICAM2 antibody (rat monoclonal, clone 3C4, Biolegend) for 10 min and with anti-rat IgG Microbead (Miltenyi Biotec) for 15 min. […] VEGF-Trap was prepared as previously described. Various signaling inhibitors and activators including SB203580, PD98059, KT5720, Go6976, KT5823, LY294002, rapamycin, Y27632, SB431542, Rho-kinase inhibitor (RKI; H-1152, isoquinolinesulfonamide), and Rho-kinase inhibitor II (RKI-II; pyridyl urea) were purchased from Calbiochem and Sigma-Aldrich.
# Cells were harvested with 0.25% trypsin-EDTA (Invitrogen) or dissociation buffer (Invitrogen) and resuspended in HBSS/2% FBS at 1×10^6 cells per 100┌ l. The cells were incubated for 20 min with the following antibodies: biotin-conjugated anti-mouse Flk1 (clone AVAS12a1, eBioscience), allophycocyanin (APC)-conjugated anti-mouse CD140a (clone APA5, eBioscience), phycoerythrin(PE)-conjugated anti-mouse CD31 (clone 390, eBioscience), Alexa Fluor® 647-conjugated anti-mouse CD144 (clone BV13, eBioscience), PE-conjugated anti-mouse D114 (clone HMD4-1, Biolegend), PE-conjugated anti-mouse Tie2 (clone TEK4, eBioscience), PE-conjugated anti-mouse Endoglin (clone MJ7/18, Biolegend), anti-mouse ICAM2 (clone 3C4, Biolegend), APC-conjugated anti-mouse CD140b (clone APBS, eBioscience), PE-conjugated anti-mouse LYVE1 (clone ALY7, eBioscience), anti-mouse VEGFR3 (goat polyclonal, R&D systems), anti-mouse EphB4 (clone VEB4-7E4, Hycult biotech), and PE-conjugated anti-mouse Notch1 (clone HMN1-12, Biolegend). After washing in HBSS/2% FBS twice, the cells were incubated with the following secondary antibodies: PE-conjugated streptavidin (eBioscience), PE-conjugated anti-rat IgG2a (eBioscience), and FITC-conjugated anti-goat IgG (Invitrogen). Dead cells were excluded by 7-aminoactinomycin D (7-AAD, Invitrogen).
# Flk1+ MPCs derived from mouse ESCs are capable of differentiating into ECs, hematopoietic cells, mural cells (MCs), and cardiomyocytes. To avoid cell contamination from using feeder cells for differentiation of Flk1+ MPCs, we have established a feeder cell-free 2D Matrigel system (FIG. 1A). Flk1+ MPCs were differentiated from E14tg2a ESC cell line, and when the Flk1+ MPCs were purified at day 4.5 and cultured on Matrigel-coated plates in the differentiation medium, colonies of CD144+ ECs surrounded by ┌ SMA+MCs were formed (FIG. 1B). At day 6.5, population of CD144+/CD31+ ECs grown in differentiation medium was ˜4%, whereas the same EC population was increased up to ˜20% when VEGF-A (50 ng/ml) was supplemented (FIG. 1C). For following experiments, we chose to use 50 ng/ml of VEGF-A (hereafter referred to as VEGF-A) based on its maximal effect on differentiation and expansion of ECs from Flk1+ MPCs.
# Flk1+ MPCs [2] = experiment: Differentiation of MCs from Flk1+ MPCs, FACS of αSMA+ MCs; format: cell-based, mouse; settings: Y27632 10 μM; ML7 5 μM
# Description: FIGS. 11A-11D. ROCK suppression promotes the differentiation of ECs through PTEN-Akt signaling and inhibits the differentiation of MCs through MyPT-MLC signaling. (FIG. 11A) Representative FACS analysis of CD31+/CD144+ ECs incubated with 0.1% DMSO or LY294002 (20┌ M; LY) in the presence of PBS (Control) or Y27632 (10┌ M; Y). (FIG. 11B) % of CD31+/CD144+ EC population. Each group, n=3. *p<0.01 versus 0. Each group, n=3. *p<0.01 versus DMSO; ^#p<0.01 versus Y27632. (FIG. 11C) Representative FACS analysis of ┌ SMA+MCs or CD144+ ECs incubated with 0.1% DMSO or ML7 (5 ┌ M) in the presence of PBS (Control) or Y27632 (10┌ M). (FIG. 11D) % of ┌ SMA+MC population. Each group, n=3. *p<0.01 versus 0. Each group, n=3. *p<0.01 versus DMSO. n.s. represents statistically non-significant.
# Analysis and sorting for CMs were performed at day 10.5. We harvested differentiated Flk1+ MPCs on OP9 cells with 0.25% trypsin-EDTA or dissociation buffer (Invitrogen). Cardiac troponin-T (cTnT)+ and ┌ smooth muscle actin (SMA)+ cells were analyzed after permeabilization using Cytofix/Cytoperm solution (BD Biosciences) for 15 min. After permeabilization, the cells were incubated for 30 min with anti-mouse cTnT (NeoMarkers) monoclonal antibody. […] Data were analyzed using FlowJo Version 7.5.4 software (TreeStar).
molecule,measurement,setting,value
O=c1cc(N2CCOCC2)oc2c(-c3ccccc3)cccc12 [LY294002],ROCK suppression-induced differentiation and expansion of ECs,Flk1+ MPCs [1]; LY294002 20 μM with Y27632 under VEGF-A stimulus,almost completely suppressed
same,CD31+/CD144+ EC population,"Flk1+ MPCs [1]; inhibitor treated with VEGF-A, day 6.5",strongly reduced
O=S(=O)(c1cccc2c(I)cccc12)N1CCCNCC1 [ML7],reduction of αSMA+MC population,Flk1+ MPCs [2],~31%
O=C(Nc1ccncc1)Nc1c(Cl)cc(Cl)cc1Cl [RKI-II],EC population,Flk1+ MPCs [1],similarly increased
Cc1cncc2cccc(S(=O)(=O)N3CCCNC[C@@H]3C)c12 [RKI],EC population,Flk1+ MPCs [1],similarly increased
VEGF-Trap: blocks the action of VEGF-A; prepared as previously described,ROCK suppression-induced expansion of ECs,Flk1+ MPCs [1]; pretreatment of VEGF-Trap (5 μg/ml) during differentiation,totally abolished
